Assay [1] addresses GDP-bound KRAS protein (aa 1-169), containing both G12C and C118A amino acid substitutions (Homo sapiens, UniProt P01116, C118A/G12C). The assay is described as follows: Coupled nucleotide exchange assay (SOS-mediated, AlphaScreen). It is filed as biochemical. Particulars: 5 min compound pre-incubation. For orientation: In Alpha technology, singlet oxygen from a donor bead excites a nearby acceptor bead.

Assay [2] deals with Phosphorylation of ERK1/2 in MIA PaCa-2 cells. The assay is described as follows: Phospho-ERK1/2 MSD assay in MIA PaCa-2 cells. It is filed as cell-based. Particulars: read-out: p-ERK IC50 (2 h; MIA PaCa-2), 2 h compound treatment. The procedure, abridged: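 In the procedure, cells were plated a day ahead at 25,000 per well. Next, a dilution series of compound in growth medium was added for 2 or 4 h. EGF (10 ng/mL) stimulation for 10 min preceded washing and RIPA lysis. Lysate phospho-ERK1/2 was read by MSD, with IC50 derived by 4-parameter logistic analysis.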

Read-outs that look alike come from different tables or passages of the source.

GDP-bound KRAS protein (aa 1-169), containing both G12C and C118A amino acid substitutions, sequence (P01116 1-169 isoform P01116-2 G12C/C118A): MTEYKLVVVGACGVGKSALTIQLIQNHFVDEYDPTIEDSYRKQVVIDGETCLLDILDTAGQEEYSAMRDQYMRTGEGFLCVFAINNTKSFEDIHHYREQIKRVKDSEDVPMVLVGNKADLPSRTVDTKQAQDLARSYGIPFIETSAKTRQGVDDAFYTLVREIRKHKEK

On to `C=CC(=O)N1CCN(c2nc(=O)n(-c3ccccc3C3(C)CC3)c3nc(-c4c(O)cccc4F)c(Cl)cc23)[C@@H](C)C1` (single isomer, unassigned) [Example 54-97-2], for which the “Coupled exchange IC50 (5 min)” value in assay [1] was 0.044 | nda μM. Also, the IC50 (in general, the concentration that inhibits the measured activity by half) in assay [2] is 141 nM.

`C=CC(=O)N1CCN(c2nc(=O)n(-c3ccccc3C3(C)CC3)c3nc(-c4ccccc4F)c(Cl)cc23)[C@@H](C)C1` (single isomer, unassigned) [Example 54-99-2]: in assay [1], the “Coupled exchange IC50 (5 min)” value is on record as 0.094 | nda μM. In addition, the IC50 in assay [2] (Homo sapiens, MIA PaCa-2, 2 h) worked out at 174 nM.

Consider `C=CC(=O)N1CCN(c2nc(=O)n(-c3cccnc3C(C)(C)C)c3nc(-c4c(O)cccc4F)c(Cl)cc23)[C@@H](C)C1` (single isomer, unassigned) [Example 54-103-1], for which the “Coupled exchange IC50 (5 min)” value in assay [1] was 0.073 | nda μM. The IC50 in assay [2] (Homo sapiens, MIA PaCa-2, 2 h) was found to be 93 nM.

Turning to `C=CC(=O)N1CCN(c2nc(=O)n(-c3c(C(C)C)cccc3N(C)C)c3nc(-c4ccccc4F)c(Cl)cc23)[C@@H](C)C1` (single isomer, unassigned) [Example 54-104-2], the “Coupled exchange IC50 (5 min)” value in assay [1] is 0.035 | nda μM. For the same compound, the IC50 in assay [2] (Homo sapiens, MIA PaCa-2, 2 h) worked out at 210 nM.

As for `C=CC(=O)N1CCN(c2nc(=O)n(-c3c(OC)ncnc3C(C)C)c3nc(-c4ccccc4F)c(Cl)cc23)[C@@H](C)C1` (single isomer, unassigned) [Example 54-107-2], the “Coupled exchange IC50 (5 min)” value in assay [1] was 0.067 | nda μM. Also, in assay [2] (Homo sapiens, MIA PaCa-2, 2 h), the IC50 was determined as 48 nM.

With `C=CC(=O)N1CCN(c2nc(=O)n(-c3cncnc3C(C)(C)C)c3nc(-c4ccccc4F)c(Cl)cc23)[C@@H](C)C1` (single isomer, unassigned) [Example 54-110-2], the “Coupled exchange IC50 (5 min)” value in assay [1] is 0.194 | nda μM. Also, the IC50 in assay [2] (Homo sapiens, MIA PaCa-2, 2 h) amounted to 119 nM.

With `C=CC(=O)N1CCN(c2nc(=O)n(-c3cccnc3C(C)(C)C)c3nc(-c4ccccc4F)c(Cl)cc23)[C@@H](C)C1` (single isomer, unassigned) [Example 54-112-1], the “Coupled exchange IC50 (5 min)” value in assay [1] is 0.075 | nda μM. In addition, the IC50 in assay [2] (Homo sapiens, MIA PaCa-2, 2 h) turned out to be 125 nM.

Consider `C=CC(=O)N1CCN(c2nc(=O)n(-c3c(C)nc(C)nc3C(C)C)c3nc(-c4c(O)cccc4F)c(Cl)cc23)[C@@H](C)C1` (single isomer, unassigned) [Example 55-4-1], for which the “Coupled exchange IC50 (5 min)” value in assay [1] is recorded as 0.023 | nda μM. In addition, the IC50 in assay [2] (Homo sapiens, MIA PaCa-2, 2 h) is 37 nM.

On to `C=CC(=O)N1CCN(c2nc(=O)n(-c3c(C)ccnc3N(C)C)c3nc(-c4ccccc4F)c(Cl)cc23)[C@@H](C)C1` (single isomer, unassigned) [Example 55-7-2], for which the “Coupled exchange IC50 (5 min)” value in assay [1] is given as 0.325 | nda μM. For the same compound, the IC50 in assay [2] (Homo sapiens, MIA PaCa-2, 2 h) was 587 nM.

As to `C=CC(=O)N1CCN(c2nc(=O)n(-c3c(C)cccc3CC)c3nc(-c4ccccc4F)c(Cl)cc23)[C@@H](C)C1` (single isomer, unassigned) [Example 55-9-1], the “Coupled exchange IC50 (5 min)” value in assay [1] is reported as 0.804 | nda μM. The IC50 in assay [2] was 1350 nM.

For `C=CC(=O)N1CCN(c2nc(=O)n(-c3c(C)cccc3CC)c3nc(-c4ccccc4F)c(Cl)cc23)[C@@H](C)C1` (single isomer, unassigned) [Example 55-9-2], the “Coupled exchange IC50 (5 min)” value in assay [1] is recorded as 0.158 | nda μM. In addition, the IC50 in assay [2] came to 298 nM.

As for `C=CC(=O)N1CCN(c2nc(=O)n(-c3c(C)ccnc3CC)c3nc(-c4c(O)cccc4F)c(Cl)cc23)[C@@H](C)C1` (single isomer, unassigned) [Example 55-10-1], the “Coupled exchange IC50 (5 min)” value in assay [1] is on record as 0.065 | nda μM. For the same compound, in assay [2], the IC50 was determined as 82 nM.

As for `C=CC(=O)N1CCN(c2nc(=O)n(-c3c(C)ccnc3CC)c3nc(-c4c(O)cccc4F)c(Cl)cc23)[C@@H](C)C1` (single isomer, unassigned) [Example 55-10-2], the “Coupled exchange IC50 (5 min)” value in assay [1] is on record as 0.266 | nda μM. For the same compound, in assay [2], the IC50 is 344 nM.

As to `C=CC(=O)N1CCN(c2nc(=O)n(-c3c(C)cccc3C3CC3)c3nc(-c4c(O)cccc4F)c(Cl)cc23)[C@@H](C)C1` (single isomer, unassigned) [Example 55-15-1], the “Coupled exchange IC50 (5 min)” value in assay [1] is on record as 0.169 | nda μM. In addition, the IC50 in assay [2] was determined as 206 nM.

Regarding `C=CC(=O)N1CCN(c2nc(=O)n(-c3c(C)cccc3C3CC3)c3nc(-c4c(O)cccc4F)c(Cl)cc23)[C@@H](C)C1` (single isomer, unassigned) [Example 55-15-2], the “Coupled exchange IC50 (5 min)” value in assay [1] is on record as 0.061 | nda μM. Further, the IC50 in assay [2] was 76 nM.

`C=CC(=O)N1CCN(c2nc(=O)n(-c3c(O)cccc3C(C)C)c3nc(-c4ccccc4F)c(Cl)cc23)[C@@H](C)C1` (single isomer, unassigned) [Example 55-26-2]: the “Coupled exchange IC50 (5 min)” value in assay [1] is listed as 0.031 | nda μM. The IC50 in assay [2] (Homo sapiens, MIA PaCa-2, 2 h) amounted to 124 nM.

Consider `C=CC(=O)N1CCN(c2nc(=O)n(-c3c(C)cnn3C(C)(C)C)c3nc(-c4ccccc4F)c(Cl)cc23)[C@@H](C)C1` (single isomer, unassigned) [Example 55-38-2], for which, in assay [1], the “Coupled exchange IC50 (5 min)” value is on record as 0.133 | nda μM. Further, the IC50 in assay [2] (Homo sapiens, MIA PaCa-2, 2 h) is 108 nM.

Regarding `C=CC(=O)N1CCN(c2nc(=O)n(-c3c(C)ncnc3C(C)C)c3nc(-c4cc(F)ccc4F)c(Cl)cc23)[C@@H](C)C1` (single isomer, unassigned) [Example 55-39-2], the “Coupled exchange IC50 (5 min)” value in assay [1] is given as 0.121 | nda μM. In assay [2] (Homo sapiens, MIA PaCa-2, 2 h), the IC50 amounted to 111 nM.

`C=CC(=O)N1CCN(c2nc(=O)n(-c3c(C)ncnc3C(C)C)c3nc(-c4cc(C)ccc4F)c(Cl)cc23)[C@@H](C)C1` (single isomer, unassigned) [Example 55-40-2]: the “Coupled exchange IC50 (5 min)” value in assay [1] is 0.078 | nda μM. The IC50 in assay [2] (Homo sapiens, MIA PaCa-2, 2 h) stood at 81 nM.

Regarding `C=CC(=O)N1CCN(c2nc(=O)n(-c3c(CO)cccc3C(C)C)c3nc(-c4ccccc4F)c(Cl)cc23)[C@@H](C)C1` (single isomer, unassigned) [Example 55-43-2], in assay [1], the “Coupled exchange IC50 (5 min)” value was 0.022 | nda μM. Also, the IC50 in assay [2] (Homo sapiens, MIA PaCa-2, 2 h) is 32 nM.

Turning to `C=CC(=O)N1CCN(c2nc(=O)n(-c3ccccc3S(F)(F)(F)(F)F)c3nc(-c4c(O)cccc4F)c(Cl)cc23)[C@@H](C)C1` (single isomer, unassigned) [Example 56-1-2], in assay [1], the “Coupled exchange IC50 (5 min)” value was 0.068 | nda μM. Also, the IC50 in assay [2] (Homo sapiens, MIA PaCa-2, 2 h) worked out at 145 nM.

Consider `C=CC(=O)N1CCN(c2nc(=O)n(-c3c(C)cccc3C3CC3)c3nc(-c4ccccc4F)c(Cl)cc23)[C@@H](C)C1` (single isomer, unassigned) [Example 56-5-1], for which the “Coupled exchange IC50 (5 min)” value in assay [1] is on record as 0.154 | nda μM. Besides, in assay [2], the IC50 was found to be 188 nM.

As for `C=CC(=O)N1CCN(c2nc(=O)n(-c3c(C)cccc3C3CC3)c3nc(-c4ccccc4F)c(Cl)cc23)[C@@H](C)C1` (single isomer, unassigned) [Example 56-5-2], in assay [1], the “Coupled exchange IC50 (5 min)” value is 0.668 | nda μM. For the same compound, the IC50 in assay [2] worked out at 823 nM.

`C=CC(=O)N1CCN(c2nc(=O)n(-c3ccccc3C(C)C)c3nc(-c4cc(N)ccc4Cl)c(Cl)cc23)[C@@H](C)C1` (single isomer, unassigned) [Example 56-7-1]: in assay [1], the “Coupled exchange IC50 (5 min)” value is listed as 0.079 | nda μM. For the same compound, the IC50 in assay [2] was 29 nM.

Turning to `C=CC(=O)N1CCN(c2nc(=O)n(-c3ccccc3C(C)C)c3nc(-c4cc(N)ccc4Cl)c(Cl)cc23)[C@@H](C)C1` (single isomer, unassigned) [Example 56-7-2], the “Coupled exchange IC50 (5 min)” value in assay [1] was 0.676 | nda μM. Further, the IC50 in assay [2] is 134 nM.

Source of the values: patent US11090304B2 (Amgen Inc., priority 2018, dated 2021).
